Experimental data from article PMC9598407, “Identification of Staphylococcus aureus Penicillin Binding Protein 4 (PBP4) Inhibitors” (Antibiotics, 2022).

Key:
[1] = biological target: recombinant PBP4 (Bacillus subtilis, UniProt P40750); test: Gel electrophoresis BOCILLIN FL labeling of PBP4; assay type: binding
Procedure: A second, yet lower resolution, approach was used to verify the impact of 9314848 on PBP4 substrate binding in which the protein was preincubated with compound or control antibiotics then labeled with the BOCILLIN FL and resulting fluorescent labeled protein was visualized following gel electrophoresis.
The ability of putative PBP4 inhibitors to impact the active site of recombinant PBP4 was assessed using two previously established BOCILLIN-FL Penicillin (Penicillin V conjugated to BODIPY fluorescent dye) binding assays. First, fluorescence polarization assays were performed as previously described, but with minor modifications. Briefly, the indicated amount of the putative PBP4 inhibitor or control antibiotic was incubated with 1 µM recombinant B. subtilis PBP4 or S. aureus PBP2a in potassium phosphate buffer (40 mM K2HPO4 and 10 mM KH2PO4) for 1 h in black 96-well microtiter plates (Corning Life Sciences, Corning, NY, USA). Following incubation, 1 µM (final concentration) BOCILLIN FL penicillin was added, and the mixture was incubated for 30 min. BOCILLIN FL fluorescence polarization was measured at (495 nm excitation and 545 nm emission) in a SpectraMax M5 multimode plate reader (Molecular Devices, San Jose, CA, USA). All assays were repeated at least 8 times, averaged, and values falling outside of 2 standard deviations were considered outliers. The resulting data were plotted as percentage BOCILLIN FL binding inhibition = (T/U) × 100; T = FL polarization of ((PBP4+ BOCILLIN FL) − (PBP4+ BOCILLIN FL + inhibitor compound)), U = FL polarization of ((PBP4 + BOCILLIN FL) − (BOCILLIN FL)). Second, gel electrophoresis and fluorescence detection was used to measure BOCILLIN FL labeling of PBP4 treated with the known PBP4 inhibitor cefoxitin (positive control), kanamycin (negative control) or 9314848 (test compound), as previously described but with minor modifications. Briefly, 1 µM of recombinant PBP4 was mixed with 0, 50, 500, 2000, or 5000 µM 9314848 or control antibiotic in 50 mM phosphate buffer (pH 7.4) and incubated at 37 °C for 30 min. Next 40 μM of BOCILLIN FL was added to the reaction mixture and incubated for an additional 30 min at 37 °C. Reactions were stopped by adding 5× SDS-PAGE gel loading dye, heated at 100 °C for 3 min and separated by electrophoresis in 12% SDS-PAGE (2 h, 120 Volts). BOCILLIN FL labeled PBP4 was imaged at λ = 365 nm using a BioRad Gel Doc EZ Imaging system and the gel was then subsequently stained with Bio-safe Coomassie Brilliant Blue stain (BioRad, Hercules, CA, USA) to measure the amount of protein present in each reaction condition and analyzed using NIH-ImageJ software. The percent BOCILLIN FL binding was calculated by first normalizing the protein present in each reaction condition to that of untreated control and subsequently applying each reaction’s protein normalization factor to each reaction’s fluorescent signal. The percentage BOCILLIN FL binding inhibition was then calculated as the normalized band intensity of antibiotic/compound treated sample as compared to the control sample (PBP4 + BOCILLIN FL in the absence of compound).

[2] = system: Enterococcus faecalis; test: Ceftobiprole susceptibility with compound, Enterococcus faecalis; assay type: cell-based; details: not shown
Procedure: As a means to further evaluate whether the compound affects PBP4 activity a series of assays were performed.

Sequence of recombinant PBP4 (P40750 22-624): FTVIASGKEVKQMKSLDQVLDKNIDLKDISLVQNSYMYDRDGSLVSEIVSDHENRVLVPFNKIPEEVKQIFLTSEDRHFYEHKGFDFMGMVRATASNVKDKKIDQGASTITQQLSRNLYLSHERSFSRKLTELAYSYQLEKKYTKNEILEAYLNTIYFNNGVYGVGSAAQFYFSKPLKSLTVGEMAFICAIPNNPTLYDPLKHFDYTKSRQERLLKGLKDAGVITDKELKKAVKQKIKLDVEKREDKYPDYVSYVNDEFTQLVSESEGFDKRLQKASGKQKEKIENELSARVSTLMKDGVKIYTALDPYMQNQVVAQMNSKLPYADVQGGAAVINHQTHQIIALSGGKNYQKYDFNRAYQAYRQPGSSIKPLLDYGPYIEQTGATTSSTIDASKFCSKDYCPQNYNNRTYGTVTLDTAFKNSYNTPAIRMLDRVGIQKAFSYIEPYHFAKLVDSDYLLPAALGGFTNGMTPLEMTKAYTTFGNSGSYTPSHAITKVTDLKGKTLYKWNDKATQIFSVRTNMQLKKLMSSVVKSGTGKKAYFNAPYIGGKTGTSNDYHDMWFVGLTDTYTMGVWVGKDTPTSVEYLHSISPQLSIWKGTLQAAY

CC1CCN(C(=O)c2cccc(NC(=O)Nc3ccc(Cl)cc3)c2)CC1 [Compound 9314848]
inhibition at 50 µM ([1]; 50 µM compound, read-out: PBP4 BOCILLIN FL binding inhibition (gel-based)): 37.5 ± 8.2% | inhibition at 5000 µM ([1]; 5000 µM compound, read-out: PBP4 BOCILLIN FL binding inhibition (gel-based)): 72.1 ± 13.1% | PBP4 BOCILLIN FL binding inhibition (gel-based) at low concentration ([1]; concentrations below 50 µM): did not reproducibly demonstrate BOCILLIN FL binding inhibition | Effect on ceftobiprole susceptibility [2]: no effect
